Data reported in article PMC5608804, “Stepwise Evolution Improves Identification of Diverse Peptides Binding to a Protein Target” (Scientific Reports, 2017).

Molecular target: T1, streptavidin (Streptomyces avidinii, UniProt P22629)
T1 construct: purchased GE Healthcare (Little Chalfont, UK)
Assay: Cy5-streptavidin binding on HotSpot discovery array, 5-mer L-peptide library
Conditions: 5-mer L-peptide library array, Cy5-streptavidin; from average of three arrays
Procedure, shortened: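 Array of 2,476,099 5-mer peptides (19 amino acids, no cysteine) with Gly-Ser linkers, probed overnight at 4 °C with 0.5 µg/ml Cy5-streptavidin in Tris pH 7.4 buffer containing casein or BSA plus Tween-20. Cy5 fluorescence read at 635 nm; peptides selected by signal-to-background >4 across three arrays.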

T1 sequence (P22629 25-183): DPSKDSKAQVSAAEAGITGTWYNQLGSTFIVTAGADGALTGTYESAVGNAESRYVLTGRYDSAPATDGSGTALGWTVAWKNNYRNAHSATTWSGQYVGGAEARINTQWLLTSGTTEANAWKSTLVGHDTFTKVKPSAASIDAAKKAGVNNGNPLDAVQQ

Substance | S/B (signal to background ratio)
LHPQA | 128.0
IRHPQ | 165.9
AHPMS | 27.6
EHPQS | 36.4
WAHPM | 135.8
YAHPQ | 186.2
SGHPQ | 128.5
GAHPM | 34.1
VYHPQ | 168.1
YHPQN | 176.5
FLHPQ | 145.5
GAHPQ | 136.7
WHPQF | 132.3
HPMFN | 39.1
EQHPQ | 43.8
NHHPQ | 128.2
PNHPQ | 144.0
HYHPQ | 184.3
WGHPQ | 216.3
RHHPM | 53.8
NTHPQ | 133.1
TTHPM | 29.8
HPQTG | 28.1
GHHPQ | 149.8
SHPQA | 137.0

Substance | S/B (signal to background ratio)
EHPQV | 41.0
IMHPM | 35.1
QHPQA | 138.2
GRHPQ | 136.4
LGQYH [L-amino acid 5-mer array peptide] | 31.1
HPHPQ | 185.1
WHPQA | 172.2
RSHPQ | 137.5
RKHPQ | 46.9
AMHPM | 42.8
SHPQQ | 41.4
MHPQV | 55.8
FHPQG | 146.3
WHHPQ | 200.9
SEHPM | 19.1
STHPQ | 139.4
HPQHF | 18.9
LHPMS | 22.2
YHPMN | 26.1
VHPQN | 153.6
WHPQY | 53.1
SHPQN | 135.7
WHPMF | 27.4
YNHPQ | 193.0
MWHPQ | 192.7

Substance | S/B (signal to background ratio)
HPMGN | 22.1
PYHPQ | 151.0
HRHPQ | 149.4
LKHPM | 26.3
AAHPM | 35.3
TPHPQ | 142.6
QPHPM | 52.0
FHPQW | 22.2
SPHPQ | 145.4
NHPQI | 21.1
HPQVH | 57.8
PRHPQ | 161.5
YVHPQ | 145.8
KHPQV | 33.0
RHPQA | 134.8
GTHPQ | 132.9
QRHPQ | 154.5
DHPQK | 32.1
SLHPM | 46.4
MLHPQ | 136.4
ISHPQ | 142.0
WHPQN | 176.6
RHPQD | 36.1
HPQRG | 33.4
ALHPM | 39.7

Same assay, conditions: 5-mer L-peptide library array, Cy5-streptavidin; from the average of three arrays

Substance | S/B (signal to background ratio)
LAHPM | 62.9
HPQYN | 66.1
THPQS | 70.8
VQHPQ | 114.0
QHHPM | 64.4
DNHPQ | 74.6
YDHPQ | 116.2
HPQNY | 103.6
MFHPM | 85.4
HHPQV | 71.9
IHPMA | 70.9
HKHPQ | 86.4
NHPQV | 81.6
HVHPQ | 105.7
MRHPM | 60.6
DHPQA | 83.3
RHPQN | 86.1
ENHPQ | 78.3
QYHPM | 82.7
MWHPM | 86.7
HMHPM | 61.8
LGHPM | 76.1
VKHPQ | 64.6

Substance | S/B (signal to background ratio)
HPQFN | 113.3
YQHPM | 84.6
VRHPM | 64.0
HPQSG | 90.1
HFHPM | 76.4
HPQGN | 108.4
SDHPQ | 92.6
EHPQG | 64.3
YAHPM | 87.4
MDHPQ | 88.9
HPQNS | 112.6
IRHPM | 63.6
DSHPQ | 74.0
KFHPQ | 81.9
KVHPQ | 65.5
LWHPM | 64.6
YHPQQ | 76.2
AHPQS | 79.9
YFHPM | 69.8
FRHPM | 89.2
KLHPQ | 71.4
FHPQS | 97.1
TIHPQ | 92.6

Same assay, conditions: 5-mer L-peptide library, from the average of three arrays

Substance | S/B (signal to background ratio)
MHPMW | 4.3
HPMSR | 4.4
MAFHF [L-amino acid 5-mer array peptide] | 4.8
FLGHP | 4.2
HPQIP | 4.0
FHPQE | 5.1
WHPNR | 5.2
NWEAV [L-amino acid 5-mer array peptide] | 4.1
HPMSY | 4.8
FHPMW | 5.1
THPMK | 4.1
NHPMK | 4.7
WHVPQ | 4.3
HPQKF | 4.8
FMPHP | 5.0
FFMIM [L-amino acid 5-mer array peptide] | 5.1
GHPPQ | 5.2
MHPMI | 4.7
HPQTV | 4.3
HPMFI | 4.7
HPWRS | 4.0
HPMNH | 4.4
HGFPF | 4.7

Same assay, conditions: average of three arrays, L-peptide 5-mer library

Substance | S/B (signal to background ratio)
FDKWL [L-amino acid 5-mer array peptide] | 15.9
RFDLL [L-amino acid 5-mer array peptide] | 5.2
LATFH [L-amino acid 5-mer array peptide] | 6.2
MAFHF [L-amino acid 5-mer array peptide] | 4.8
RHDLY [L-amino acid 5-mer array peptide] | 6.6
MALHF [L-amino acid 5-mer array peptide] | 8.0
MANHF [L-amino acid 5-mer array peptide] | 6.0
DPFGW [L-amino acid 5-mer array peptide] | 10.1
LGQYH [L-amino acid 5-mer array peptide] | 31.1
LAKYH [L-amino acid 5-mer array peptide] | 12.2
NWEAV [L-amino acid 5-mer array peptide] | 4.1
FFMIM [L-amino acid 5-mer array peptide] | 5.1
LSVYH [L-amino acid 5-mer array peptide] | 5.3
HGFPF | 4.7
FDNWL [L-amino acid 5-mer array peptide] | 9.9

Same assay, conditions: signal to background ratio; 5-mer L-peptide library array, Cy5-streptavidin

Substance | S/B
HPQIN | 12.2
FDKWL [L-amino acid 5-mer array peptide] | 15.9
RFDLL [L-amino acid 5-mer array peptide] | 5.2
LATFH [L-amino acid 5-mer array peptide] | 6.2
HPQDG | 15.1
RHDLY [L-amino acid 5-mer array peptide] | 6.6
RHPQP | 7.4
HPMGV | 9.2
MALHF [L-amino acid 5-mer array peptide] | 8.0
HPMVF | 5.3
MANHF [L-amino acid 5-mer array peptide] | 6.0
HPMFL | 5.4
HPMNR | 5.6
HPMAF | 18.0
DPFGW [L-amino acid 5-mer array peptide] | 10.1
WHPDW | 5.3
LHPMR | 7.0
HPMYA | 11.4
HPMYS | 8.6
LAKYH [L-amino acid 5-mer array peptide] | 12.2
HPMYR | 5.9
HPQHL | 9.2
HPMPW | 8.2
HPQHS | 18.1
MHPQK | 9.8

Substance | S/B
HPQYW | 5.7
IHPQD | 10.4
HPQAI | 10.7
HPTPW | 15.1
HPMQG | 16.2
HPMGW | 18.2
HPQSH | 12.3
HPQFK | 17.7
HPQHV | 13.6
LSVYH [L-amino acid 5-mer array peptide] | 5.3
HPQIS | 8.8
GHPMY | 11.0
HPMPD | 5.4
SHPMY | 11.0
HPWRY | 11.4
YRGHP | 5.3
FHPQL | 7.4
HPQKG | 18.2
RHPMY | 14.4
HPQPD | 6.3
FDNWL [L-amino acid 5-mer array peptide] | 9.9
HPMGI | 7.9
THPQK | 14.5
HPQRN | 17.7
